Read-outs that look alike come from different tables or passages of the source.

For one data set, the target named is T1, MRP4 (Homo sapiens, UniProt O15439).
T1 sequence (O15439 1-1325): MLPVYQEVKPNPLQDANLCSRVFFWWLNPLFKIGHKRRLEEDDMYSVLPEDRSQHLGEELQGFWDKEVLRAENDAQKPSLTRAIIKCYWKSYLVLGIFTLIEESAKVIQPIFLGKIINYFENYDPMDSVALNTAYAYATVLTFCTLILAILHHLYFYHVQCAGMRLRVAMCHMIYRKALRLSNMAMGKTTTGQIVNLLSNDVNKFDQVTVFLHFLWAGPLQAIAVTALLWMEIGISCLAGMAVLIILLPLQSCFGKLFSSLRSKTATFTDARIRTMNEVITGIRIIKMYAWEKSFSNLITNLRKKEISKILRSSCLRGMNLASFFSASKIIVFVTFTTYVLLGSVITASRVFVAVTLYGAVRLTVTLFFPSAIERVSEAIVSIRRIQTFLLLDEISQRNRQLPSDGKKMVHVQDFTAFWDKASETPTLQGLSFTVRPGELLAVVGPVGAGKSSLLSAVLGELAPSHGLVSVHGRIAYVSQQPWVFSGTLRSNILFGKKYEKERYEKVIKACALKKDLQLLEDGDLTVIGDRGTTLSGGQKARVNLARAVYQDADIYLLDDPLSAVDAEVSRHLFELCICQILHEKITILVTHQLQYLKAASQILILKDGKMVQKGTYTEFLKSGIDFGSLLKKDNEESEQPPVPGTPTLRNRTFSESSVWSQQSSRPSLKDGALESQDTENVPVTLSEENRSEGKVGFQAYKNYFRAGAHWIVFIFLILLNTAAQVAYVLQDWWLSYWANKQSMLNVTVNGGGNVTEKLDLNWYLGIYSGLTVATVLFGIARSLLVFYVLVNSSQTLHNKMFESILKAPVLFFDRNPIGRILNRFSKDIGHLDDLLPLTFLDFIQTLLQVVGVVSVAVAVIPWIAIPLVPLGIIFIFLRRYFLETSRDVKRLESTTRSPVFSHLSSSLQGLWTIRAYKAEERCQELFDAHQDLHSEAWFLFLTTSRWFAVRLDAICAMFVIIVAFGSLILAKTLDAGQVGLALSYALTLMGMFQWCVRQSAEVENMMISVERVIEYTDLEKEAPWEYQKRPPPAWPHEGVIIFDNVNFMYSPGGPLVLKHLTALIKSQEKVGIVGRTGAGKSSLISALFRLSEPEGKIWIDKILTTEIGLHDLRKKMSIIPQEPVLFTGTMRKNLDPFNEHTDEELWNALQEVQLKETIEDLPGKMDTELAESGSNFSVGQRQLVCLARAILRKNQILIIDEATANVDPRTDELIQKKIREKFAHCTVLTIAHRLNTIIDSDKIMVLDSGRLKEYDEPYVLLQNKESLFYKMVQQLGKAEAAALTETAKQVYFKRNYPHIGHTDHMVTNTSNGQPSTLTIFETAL
As to conditions: cited from earlier work.

The subject of data set [1] is T2, MRP transporters.
T2 construct: other: human erythrocytes
As to conditions: human erythrocytes; cited from earlier work.

In data set [2] the target is MRP transporters (Homo sapiens, UniProt P33527). As to conditions: read-out: IC50 for MRP transporter; cited from earlier work.
Another data set addresses MRP5 (Homo sapiens, UniProt O15440). As to conditions: cited from earlier work.
In a further data set the test system is hyaluronan transport. As to the kind of experiment: Inhibition of hyaluronan transport (export) from human fibroblasts, discussion of Example 9. As to conditions: human fibroblasts.
The target of the next data set is MDR1 (Homo sapiens, UniProt P08183). As to conditions: cited from earlier work.
For the next data set, the target named is MRP1 (Homo sapiens, UniProt P33527). As to conditions: read-out: published inhibitory concentrations IC50 or Ki, MRP1; cited from earlier work.
The next data set has as its system hyaluronan synthase. As to conditions: read-out: HA synthase activity (IC50); membranes of human fibroblasts.

Sequence of MRP5 (O15440 whole entry): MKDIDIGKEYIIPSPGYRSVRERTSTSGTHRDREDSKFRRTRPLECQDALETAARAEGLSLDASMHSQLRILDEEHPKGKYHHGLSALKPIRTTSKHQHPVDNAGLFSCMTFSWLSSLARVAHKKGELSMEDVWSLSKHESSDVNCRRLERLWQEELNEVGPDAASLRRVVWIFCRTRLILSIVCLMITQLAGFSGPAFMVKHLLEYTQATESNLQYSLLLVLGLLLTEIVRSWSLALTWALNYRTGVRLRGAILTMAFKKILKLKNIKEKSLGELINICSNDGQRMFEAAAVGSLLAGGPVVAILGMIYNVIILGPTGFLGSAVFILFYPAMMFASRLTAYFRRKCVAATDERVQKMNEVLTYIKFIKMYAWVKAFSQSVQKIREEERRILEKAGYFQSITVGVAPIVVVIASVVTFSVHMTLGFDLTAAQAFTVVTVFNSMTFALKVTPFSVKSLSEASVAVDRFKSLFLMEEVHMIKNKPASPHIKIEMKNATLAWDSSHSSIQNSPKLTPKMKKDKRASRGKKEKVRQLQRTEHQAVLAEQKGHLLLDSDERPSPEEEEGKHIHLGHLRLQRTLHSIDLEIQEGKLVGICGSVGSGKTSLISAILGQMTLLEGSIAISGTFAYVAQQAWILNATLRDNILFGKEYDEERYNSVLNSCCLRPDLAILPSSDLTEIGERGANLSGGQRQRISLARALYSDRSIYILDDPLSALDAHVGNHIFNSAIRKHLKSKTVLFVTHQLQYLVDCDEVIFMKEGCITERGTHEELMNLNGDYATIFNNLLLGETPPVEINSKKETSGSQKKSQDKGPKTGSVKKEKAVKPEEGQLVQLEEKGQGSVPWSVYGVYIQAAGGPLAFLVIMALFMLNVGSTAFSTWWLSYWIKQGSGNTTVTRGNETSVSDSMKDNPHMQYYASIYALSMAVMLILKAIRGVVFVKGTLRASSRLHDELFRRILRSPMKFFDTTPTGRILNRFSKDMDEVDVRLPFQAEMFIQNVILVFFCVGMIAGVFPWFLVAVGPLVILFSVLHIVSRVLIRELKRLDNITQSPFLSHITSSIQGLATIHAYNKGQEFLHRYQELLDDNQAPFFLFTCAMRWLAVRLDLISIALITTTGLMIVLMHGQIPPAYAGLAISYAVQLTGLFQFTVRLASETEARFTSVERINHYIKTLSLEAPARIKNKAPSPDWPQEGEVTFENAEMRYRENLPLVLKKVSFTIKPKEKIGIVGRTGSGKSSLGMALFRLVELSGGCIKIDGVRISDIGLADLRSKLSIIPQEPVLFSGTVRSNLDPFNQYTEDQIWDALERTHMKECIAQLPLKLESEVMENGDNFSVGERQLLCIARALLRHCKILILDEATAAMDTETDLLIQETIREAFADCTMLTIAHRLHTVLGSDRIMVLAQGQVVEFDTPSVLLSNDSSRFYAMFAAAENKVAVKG
Sequence of MDR1 (P08183 whole entry): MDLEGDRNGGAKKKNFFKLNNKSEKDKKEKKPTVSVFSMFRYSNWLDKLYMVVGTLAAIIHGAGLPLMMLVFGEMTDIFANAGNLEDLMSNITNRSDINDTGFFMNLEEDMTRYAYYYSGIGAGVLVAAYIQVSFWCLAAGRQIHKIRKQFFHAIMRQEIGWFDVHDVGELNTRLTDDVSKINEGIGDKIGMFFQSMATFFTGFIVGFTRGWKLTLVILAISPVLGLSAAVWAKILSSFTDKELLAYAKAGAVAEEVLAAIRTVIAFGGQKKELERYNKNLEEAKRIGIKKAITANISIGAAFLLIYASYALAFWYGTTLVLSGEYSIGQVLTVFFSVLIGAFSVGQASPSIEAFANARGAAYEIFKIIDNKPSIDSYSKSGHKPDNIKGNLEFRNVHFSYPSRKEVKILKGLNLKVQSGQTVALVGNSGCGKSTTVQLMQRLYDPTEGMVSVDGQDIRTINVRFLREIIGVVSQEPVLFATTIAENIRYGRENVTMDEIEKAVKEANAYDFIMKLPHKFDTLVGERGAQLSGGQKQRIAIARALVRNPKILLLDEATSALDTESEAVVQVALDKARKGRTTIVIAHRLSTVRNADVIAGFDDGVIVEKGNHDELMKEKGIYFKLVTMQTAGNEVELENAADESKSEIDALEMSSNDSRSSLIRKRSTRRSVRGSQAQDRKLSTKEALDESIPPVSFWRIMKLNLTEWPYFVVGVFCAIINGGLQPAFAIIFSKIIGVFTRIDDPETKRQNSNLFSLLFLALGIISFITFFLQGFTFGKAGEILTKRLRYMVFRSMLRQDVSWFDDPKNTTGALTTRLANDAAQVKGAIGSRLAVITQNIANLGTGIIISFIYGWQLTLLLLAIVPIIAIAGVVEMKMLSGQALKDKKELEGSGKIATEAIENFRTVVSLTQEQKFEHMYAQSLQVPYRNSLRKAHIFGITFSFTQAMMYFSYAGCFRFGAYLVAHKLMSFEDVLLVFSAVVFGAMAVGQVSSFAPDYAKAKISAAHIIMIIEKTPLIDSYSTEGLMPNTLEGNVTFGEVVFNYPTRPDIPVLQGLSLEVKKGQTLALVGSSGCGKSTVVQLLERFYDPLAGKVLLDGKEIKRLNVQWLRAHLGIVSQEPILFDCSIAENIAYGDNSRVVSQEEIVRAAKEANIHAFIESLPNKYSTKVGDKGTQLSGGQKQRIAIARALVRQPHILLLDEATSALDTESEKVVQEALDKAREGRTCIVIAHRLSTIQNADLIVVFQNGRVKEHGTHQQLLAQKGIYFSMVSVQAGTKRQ
Sequence of MRP1 (P33527 whole entry): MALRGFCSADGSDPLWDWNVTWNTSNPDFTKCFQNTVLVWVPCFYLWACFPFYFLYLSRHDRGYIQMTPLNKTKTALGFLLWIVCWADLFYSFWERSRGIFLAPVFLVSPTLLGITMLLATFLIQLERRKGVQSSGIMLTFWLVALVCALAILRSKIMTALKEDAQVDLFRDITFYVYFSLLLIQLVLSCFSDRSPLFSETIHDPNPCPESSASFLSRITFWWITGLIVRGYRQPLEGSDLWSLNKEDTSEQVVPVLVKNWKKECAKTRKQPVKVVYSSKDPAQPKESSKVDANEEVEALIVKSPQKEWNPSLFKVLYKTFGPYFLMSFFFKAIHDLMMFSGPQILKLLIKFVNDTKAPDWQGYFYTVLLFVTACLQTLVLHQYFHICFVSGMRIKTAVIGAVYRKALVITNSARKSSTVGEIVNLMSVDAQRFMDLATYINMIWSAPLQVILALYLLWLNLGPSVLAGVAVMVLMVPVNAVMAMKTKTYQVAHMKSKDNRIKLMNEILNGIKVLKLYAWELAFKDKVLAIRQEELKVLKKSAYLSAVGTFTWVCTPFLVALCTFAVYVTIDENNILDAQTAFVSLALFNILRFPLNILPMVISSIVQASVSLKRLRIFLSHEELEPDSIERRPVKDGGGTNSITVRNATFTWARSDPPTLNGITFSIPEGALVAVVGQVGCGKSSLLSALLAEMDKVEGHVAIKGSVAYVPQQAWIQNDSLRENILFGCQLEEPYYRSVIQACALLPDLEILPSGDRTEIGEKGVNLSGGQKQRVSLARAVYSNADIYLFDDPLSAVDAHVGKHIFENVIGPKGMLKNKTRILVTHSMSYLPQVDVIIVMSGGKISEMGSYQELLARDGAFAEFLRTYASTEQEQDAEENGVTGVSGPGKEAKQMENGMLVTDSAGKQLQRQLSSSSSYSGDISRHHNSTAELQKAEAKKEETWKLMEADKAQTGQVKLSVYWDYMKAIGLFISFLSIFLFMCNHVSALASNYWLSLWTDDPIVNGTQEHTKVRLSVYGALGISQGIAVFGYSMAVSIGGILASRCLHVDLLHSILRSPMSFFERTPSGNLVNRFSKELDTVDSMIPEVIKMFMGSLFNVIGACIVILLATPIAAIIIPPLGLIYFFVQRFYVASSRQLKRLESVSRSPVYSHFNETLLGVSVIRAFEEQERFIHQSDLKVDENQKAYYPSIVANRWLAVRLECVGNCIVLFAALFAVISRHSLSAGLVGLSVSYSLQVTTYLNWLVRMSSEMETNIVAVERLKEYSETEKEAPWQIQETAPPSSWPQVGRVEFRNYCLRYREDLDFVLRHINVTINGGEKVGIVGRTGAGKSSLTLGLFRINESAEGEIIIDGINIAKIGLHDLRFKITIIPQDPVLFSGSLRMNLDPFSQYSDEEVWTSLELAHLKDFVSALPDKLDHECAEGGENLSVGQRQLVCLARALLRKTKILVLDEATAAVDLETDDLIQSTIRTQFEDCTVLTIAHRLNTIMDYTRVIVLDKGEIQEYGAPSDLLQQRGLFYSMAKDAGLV
Sequence of MRP transporters (Homo sapiens, UniProt P33527) (P33527 whole entry): as above
Method for hyaluronan transport: Cells from five culture flasks (180 cm2 growth area) were washed with cold phosphate buffered saline (PBS), harvested with the aid of a rubber policeman, sedimented at 1500 g for 5 min and suspended in 30 ml of ice-cold PBS. The cells were transferred into a Parr-cell disruption bomb, exposed to a nitrogen pressure of 900 psi for 15 min and disrupted by nitrogen cavitation [18] and the particulate fraction was obtained by centrifugation at 40000 g for 20 min. […] Hyaluronan synthesis was stopped by adding a solution of 10% sodium dodecylsuifate (SDS) to a final concentration of 1%. The mixtures were applied to descending paper chromatography that was developed with ethanol/aq. 1 M ammonium acetate pH 5.5 (13:7) as solvent. After 18 h the radioactivity of [14C]hyaluronan at the origin was determined.
Trypsinised fibroblasts were suspended in Dulbecco's medium at 10^5 cells/ml and 100 μl aliquots were transferred to a 96 well microtiter plate. The first row received 200 μl of the suspension and 20 μl of the multidrug resistance inhibitors dissolved in DMSO at concentrations of 4 mM. A serial dilution to the inhibitors was established by transfer of 100 μl aliquots from the first row to the following rows. All experiments were performed in duplicates. […] The cells were incubated for 2 days at 37° C. and aliquots (5 and 20 μl) of the culture medium were used for measurement of the hyaluronan concentration in the cell culture medium by an ELISA [19]. […] The mixtures were transferred to the hyaluronan-coated test plate and incubated for 1 hour at 37° C. The microtiter plate was washed three times with buffer A and incubated with 100 μl/well of a solution of streptavidin-horseraddish-peroxidase (Amersham) at a dilution of 1:100 in phosphate buffered saline, 0.1% Tween-20 for 30 min at room temperature. The plate was washed five times with buffer A and the colour was developed by incubation with a 100 μl/well of a solution of 5 mg o-phenylenediamine and 5 μl 30% H2O2 in 10 ml of 0.1 M citrate-phosphate buffer pH 5.3 for 25 min at room temperature. The adsorption was read at 490 nm. The concentrations in the samples were calculated from a logarithmic regression curve of the hyaluronan standard solutions.
Three parameters were measured: 1. The amount of hyaluronan produced during growth into the culture supernatant. 2. The hyaluronan synthase activity in particulate membrane fractions to eliminate the possibility that inhibition of hyaluronan production in cell culture could be caused indirectly by cellular mediators. 3. The effect on cell proliferation, because hyaluronan synthesis is also required for detachment during mitosis and growth of the human HT1080 cell line [14].

For `CCCN(CCC)S(=O)(=O)c1ccc(C(=O)O)cc1` [Probenecid], the IC50 on MRP4 (read-out: IC50, 9-(2-phosphonomethoxyethyl)adenine (PMEA) transport by MRP4, substrate PMEA) was 2300 µM; at MRP4 (read-out: IC50, MRP4 mediated export of methotrexate, substrate methotrexate), roughly 300 µM; at MRP4 (read-out: published inhibitory concentrations IC50 or Ki, MRP4), 300 µM; in the data set on MRP transporters [1] it was 100 to 200 µM; on MRP transporters [2], 500 to 800 µM; at MRP5 (substrate PMEA, read-out: IC50, PMEA transport by MRP5) it was 200 µM. The IC50 on MDR1 (read-out: IC50 for MDR1) is greater than 2000 µM; at MDR1 (read-out: published inhibitory concentrations IC50 or Ki, MDR1), greater than 2000 µM; at MRP1, 100 to 200 µM; in the data set on hyaluronan synthase it was 200 µM. Moreover, the “inhibition of MRP5 mediated transport of cGMP” value at MRP5 (at a concentration of 50 μM) is 68%. The “concentration inhibiting export of fluorescein diacetate by MRP5” value on MRP5 (substrate fluorescein diacetate) is 1 mM. Moreover, the “inhibition of hyaluronan transport (words)” value in the data set on hyaluronan transport is “inhibited hyaluronan transport”.

The record behind these values is patent US20080152640A1, “Means and Methods For Treating a Disease Which is Associated With an Excess Transport of Hyaluronan Across a Lipid Bilayer” (priority 2003, published 2008).
